The subject of experiment [1] is Carrot. Put plainly: Moisturizing effect, CM820 corneometer, carrot model. The note with it: 4 mg/cm2 topical, T 2 hours vs T0, corrected for control region. Here is the method:
(§1) Measurements were carried out at approximately 22° C. and a relative humidity ranging from 53% to 67%. Fruits and vegetables: 2 samples per product, measured at intervals of 24 hours. Application to regions of 4 cm^2. A control region on each sample. Application of the formulations at the rate of 4 mg/cm^2 (search for the direction of the action and not for the performance of the product). Moisturizing—Measurement with a CM820 corneometer of the mean value of 5 determinations. Measurements at: T0: reference value before application of the formulations. T 2 hours for the active principles (single measurement after observation of appearance of cuts on the leaves brought about by the measuring pressure of the corneometer). T 1 hour and T 4 hours for the commercial formulations. The values are the mean of the measurements at Ti divided by those at TO corrected for the variations in the control regions.

Experiment [2] relates to Potato, BF15. Put plainly: Moisturizing effect, CM820 corneometer, potato model. The note with it: 4 mg/cm2 topical, T 2 hours vs T0, corrected for control region. Here is the method: as §1
Experiment [3] relates to Apples, Golden Delicious. Briefly: Moisturizing effect, CM820 corneometer, apple model. The conditions noted are these: 4 mg/cm2 topical, T 2 hours vs T0, corrected for control region. As for the experimental part:
as §1

Experiment [4] has as its system Ficus. Put plainly: Moisturizing effect, CM820 corneometer, Ficus leaves. The conditions noted are these: Ficus leaf; 4 mg/cm2 topical; T 2 hours vs T0, corrected for control. Here is the method:
as §1, with “Plants:” for “Fruits and vegetables:”, “Application” for “Application to regions”, “the formulations over the whole of the vernicose (upper) surface. One leaf per formulation+one” for “4 cm^2. A”, “leaf. […]” for “region on each sample.”

In experiment [5] the test system is Syngonium. Briefly: Moisturizing effect, CM820 corneometer, Syngonium leaves. The conditions noted are these: Syngonium leaf; 4 mg/cm2 topical; T 2 hours vs T0, corrected for control. Here is the method:
as §1, with “Plants:” for “Fruits and vegetables:”, “Application” for “Application to regions”, “the formulations over the whole of the vernicose (upper) surface. One leaf per formulation+one” for “4 cm^2. A”, “leaf. […]” for “region on each sample.”

Experiment [6] deals with Spatyphillum. Briefly: Moisturizing effect, CM820 corneometer, Spatyphillum leaves. The conditions noted are these: Spatyphillum leaf; 4 mg/cm2 topical; T 2 hours vs T0, corrected for control. Here is the method: as §1, with “Plants:” for “Fruits and vegetables:”, “Application” for “Application to regions”, “the formulations over the whole of the vernicose (upper) surface. One leaf per formulation+one” for “4 cm^2. A”, “leaf. […]” for “region on each sample.”

In experiment [7] the test system is Man. Put plainly: Moisturizing effect, CM820 corneometer, human model (inner forearm). It is filed as in vivo. The note with it: 4 mg/cm2 topical, T 2 hours vs T0, corrected for control region. Here is the method: 2) To measure the moisturizing and the barrier effects, the human models (2 male volunteers and 2 female volunteers) took part in the tests and measurements under environmental conditions which were also controlled. Measurements were carried out at approximately 22° C. and a relative humidity ranging from 53% to 67%. Human beings: 4 models per product. Application to an inner region of the arm. Three regions of measurements, including a control, on the inner part of each forearm were conducted. The models were kept calm under climate-controlled measuring conditions for 15 minutes before each series of measurements. Application of each formulation over an area of 16 cm^2. Application of the formulations at the rate of 4 mg/cm^2 (search for the direction of the action and not for the performance of the product). Moisturizing—Measurement with a CM820 corneometer of the mean value of 5 determinations. Measurements at: T0: reference value before application of the formulations. T 2 hours for the active principles (single measurement after observation of appearance of cuts on the leaves brought about by the measuring pressure of the corneometer). T 1 hour and T 4 hours for the commercial formulations. The values are the mean of the measurements at Ti divided by those at TO corrected for the variations in the control regions.

In experiment [8] the test system is Carrot. Put plainly: Barrier effect, insensible water loss (IWL), Dermalab, carrot model. The conditions noted are these: 4 mg/cm2 topical, T 2 hours vs T0, corrected for control region. Here is the method: (§2) Measurements were carried out at approximately 22° C. and a relative humidity ranging from 53% to 67%. Fruits and vegetables: 2 samples per product, measured at intervals of 24 hours. Application to regions of 4 cm^2. A control region on each sample. Application of the formulations at the rate of 4 mg/cm^2 (search for the direction of the action and not for the performance of the product). The plant and human models and the products tested were the same as in Example 1. The IWL (insensible water loss) measurements were carried out according to the same protocol as above. IWL: Measurement with a Dermalab (vertical probe in contact with the measurement region, under minimum pressure). For the plants, a glass sheet was placed under the measurement region. 2 series of consecutive measurements of 25 values were conducted. The values are the mean of the measurements at Ti divided by those at T0 corrected for the variations in the control regions.

The test system of experiment [9] is Potato, BF15. Briefly: Barrier effect, insensible water loss (IWL), Dermalab, potato model. The note with it: 4 mg/cm2 topical, T 2 hours vs T0, corrected for control region. Here is the method: as §2
Experiment [10] has as its system Ficus. Briefly: Barrier effect, insensible water loss (IWL), Dermalab, Ficus leaves. The note with it: Ficus leaf; 4 mg/cm2 topical; T 2 hours vs T0, corrected for control. Here is the method:
as §2, with “Plants:” for “Fruits and vegetables:”, “Application” for “Application to regions”, “the formulations over the whole of the vernicose (upper) surface. One leaf per formulation+one” for “4 cm^2. A”, “leaf. […]” for “region on each sample.”

Experiment [11] has as its system Syngonium. Briefly: Barrier effect, insensible water loss (IWL), Dermalab, Syngonium leaves. The conditions noted are these: Syngonium leaf; 4 mg/cm2 topical; T 2 hours vs T0, corrected for control. Here is the method: as §2, with “Plants:” for “Fruits and vegetables:”, “Application” for “Application to regions”, “the formulations over the whole of the vernicose (upper) surface. One leaf per formulation+one” for “4 cm^2. A”, “leaf. […]” for “region on each sample.”

Experiment [12] deals with Spatyphillum. Briefly: Barrier effect, insensible water loss (IWL), Dermalab, Spatyphillum leaves. The conditions noted are these: Spatyphillum leaf; 4 mg/cm2 topical; T 2 hours vs T0, corrected for control. As for the experimental part:
as §2, with “Plants:” for “Fruits and vegetables:”, “Application” for “Application to regions”, “the formulations over the whole of the vernicose (upper) surface. One leaf per formulation+one” for “4 cm^2. A”, “leaf. […]” for “region on each sample.”

Experiment [13] relates to Man. Put plainly: Barrier effect, insensible water loss (IWL), Dermalab, human model (inner forearm). It counts as in vivo. The conditions noted are these: 4 mg/cm2 topical, T 2 hours vs T0, corrected for control region. Here is the method:
2) To measure the moisturizing and the barrier effects, the human models (2 male volunteers and 2 female volunteers) took part in the tests and measurements under environmental conditions which were also controlled. Measurements were carried out at approximately 22° C. and a relative humidity ranging from 53% to 67%. Human beings: 4 models per product. Application to an inner region of the arm. Three regions of measurements, including a control, on the inner part of each forearm were conducted. The models were kept calm under climate-controlled measuring conditions for 15 minutes before each series of measurements. Application of each formulation over an area of 16 cm^2. Application of the formulations at the rate of 4 mg/cm^2 (search for the direction of the action and not for the performance of the product). The plant and human models and the products tested were the same as in Example 1. The IWL (insensible water loss) measurements were carried out according to the same protocol as above. IWL: Measurement with a Dermalab (vertical probe in contact with the measurement region, under minimum pressure). For the plants, a glass sheet was placed under the measurement region. 2 series of consecutive measurements of 25 values were conducted. The values are the mean of the measurements at Ti divided by those at T0 corrected for the variations in the control regions.

The test system of experiment [14] is Apples, Golden Delicious. Put plainly: Barrier effect, insensible water loss (IWL), Dermalab, apple model. The conditions noted are these: 4 mg/cm2 topical, T 2 hours vs T0, corrected for control region. As for the experimental part:
as §2

Take `OCC(O)CO` [Glycerol]: the “Variation T 2 hours/T0 Corneo” value in the experiment with Carrot [1] is reported as 62%; with Potato, BF15 [2], 69%; in the experiment on Apples, Golden Delicious [3] it was 16%; in the experiment with Ficus [4], 47%; in the experiment on Syngonium [5], 38%; in the experiment on Spatyphillum [6], 52%. The “Variation T 2 hours/T0 Corneo” value in the experiment on Man [7] stood at 22%. The “Variation T 2 hours/T0 IWL” value in the experiment on Carrot [8] was 1%; in the experiment with Potato, BF15 [9], 188%; with Ficus [10], 183%; in the experiment on Syngonium [11], 40%; with Spatyphillum [12], 14%; in the experiment with Man [13] it was 55%.
As to `CCCCCCCCCCCCOP(=O)(O)O` [Surfactant, Lauryl phosphate], the “Variation T 2 hours/T0 Corneo” value in the experiment on Carrot [1] was determined as 271%; in the experiment on Potato, BF15 [2], 1144%; with Apples, Golden Delicious [3], 2%; with Ficus [4] it was 20%; in the experiment with Syngonium [5] it was 48%; with Spatyphillum [6], 30%. The “Variation T 2 hours/T0 Corneo” value with Man [7] is given as 5%. Moreover, the “Variation T 2 hours/T0 IWL” value in the experiment on Carrot [8] came to 2%; in the experiment with Potato, BF15 [9], 48%; in the experiment on Apples, Golden Delicious [14] it was 0%; in the experiment with Syngonium [11], 104%; in the experiment with Spatyphillum [12], 13%; in the experiment with Man [13], 19%.

The record behind these values is US20040185430A1, “Process for evaluating the cosmetic or dermatological activity of a product and use of plant material” (priority 2002, published 2004).
